From ChEMBL document CHEMBL4715772, “A facile stereoselective synthesis of dispiro-indeno pyrrolidine/pyrrolothiazole-thiochroman hybrids and evaluation of their antimycobacterial, anticancer and AchE inhibitory activities” (Bioorg Med Chem, 2016)
Values after ≈ are worked out from the molar mass of the structure shown. Active and inactive are the calls of the source. The rule behind the calls is not given here.

Key:
[1] = Cytotoxicity against African green monkey Vero cells assessed as cell viability after 72 hrs by MTT assay; assay type: cell-based; conditions: chlorocebus sabaeus, read-out: MNCC
[2] = test system: Mycobacterium tuberculosis; assay: Antimycobacterial activity against Mycobacterium tuberculosis H37Rv assessed as inhibition of bacterial growth by microdilution alamar blue broth assay; assay type: functional, organism-based
[3] = test system: Mycobacterium tuberculosis; assay: Antimycobacterial activity against Mycobacterium tuberculosis H37Rv assessed as inhibition of bacterial growth at 0.17 mM by microdilution alamar blue broth assay relative to control; assay type: functional
[4] = test system: Mycobacterium tuberculosis; assay: Antimycobacterial activity against Mycobacterium tuberculosis H37Rv assessed as inhibition of bacterial growth at 3.198 mM by microdilution alamar blue broth assay; assay type: functional, organism-based
[5] = test system: MCF7; assay: Antiproliferative activity against human MCF7 cells assessed as inhibition of cell proliferation at 50 uM incubated for 72 hrs by CellTiter-Glo assay relative to control; assay type: functional; conditions: MCF7, read-out: INH
[6] = target: Acetylcholinesterase (Homo sapiens, UniProt P22303); assay: Inhibition of AChE (unknown origin) using acetylthiocholine chloride as substrate preincubated with enzyme for 15 mins followed by substrate addition by Ellman's method
[7] = test system: Mycobacterium tuberculosis; assay: Potency index, ratio of cycloserine IC50 to test compound IC50 for antimycobacterial activity against Mycobacterium tuberculosis H37Rv by microdilution alamar blue broth assay; assay type: functional
[8] = test system: Mycobacterium tuberculosis; assay: Potency index, ratio of pyrimethamine IC50 to test compound IC50 for antimycobacterial activity against Mycobacterium tuberculosis H37Rv by microdilution alamar blue broth assay; assay type: functional
[9] = test system: HT-29; assay: Antiproliferative activity against human HT-29 cells assessed as inhibition of cell proliferation incubated for 72 hrs by CellTiter-Glo assay; assay type: functional, cell-based; conditions: HT-29, 72 h
[10] = test system: MCF7; assay: Antiproliferative activity against human MCF7 cells assessed as inhibition of cell proliferation incubated for 72 hrs by CellTiter-Glo assay; assay type: functional, cell-based; conditions: MCF7, 72 h

Sequence of Acetylcholinesterase (P22303 whole entry): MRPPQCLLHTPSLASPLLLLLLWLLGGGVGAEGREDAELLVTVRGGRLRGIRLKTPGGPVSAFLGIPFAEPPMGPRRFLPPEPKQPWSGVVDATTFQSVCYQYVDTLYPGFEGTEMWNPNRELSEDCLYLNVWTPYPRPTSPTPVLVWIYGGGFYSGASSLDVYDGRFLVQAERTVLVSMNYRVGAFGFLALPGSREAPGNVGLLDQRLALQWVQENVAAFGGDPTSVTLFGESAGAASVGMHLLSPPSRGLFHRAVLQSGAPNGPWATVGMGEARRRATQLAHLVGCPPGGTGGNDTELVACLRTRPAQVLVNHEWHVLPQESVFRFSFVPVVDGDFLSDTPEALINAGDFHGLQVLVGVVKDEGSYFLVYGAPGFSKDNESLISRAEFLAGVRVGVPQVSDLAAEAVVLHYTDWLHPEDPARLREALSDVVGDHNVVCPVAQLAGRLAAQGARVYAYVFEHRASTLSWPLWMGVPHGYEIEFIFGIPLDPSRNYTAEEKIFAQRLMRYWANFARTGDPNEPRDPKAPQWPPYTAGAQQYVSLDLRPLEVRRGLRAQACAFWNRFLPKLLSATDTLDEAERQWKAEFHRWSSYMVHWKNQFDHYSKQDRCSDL

Row | SMILES | MNTC at 72 h [1] [µg/mL] | IC90 [2] [µM] | MIC [2] [µM] | inhibition at 170 µM [3] [%] | Activity [4] | inhibition at 50 µM [5] [%] | IC50 [6] [µM] | IC50 [2] [µM] | Ratio IC50 [7] | Ratio IC50 [8] | IC50 [9] [µM] | IC50 [10] [µM]
1 | NCC[C@H](O)C(=O)N[C@@H]1C[C@H](N)[C@@H](O[C@H]2O[C@H](CN)[C@@H](O)[C@H](O)[C@H]2O)[C@H](O)[C@H]1O[C@H]1O[C@H](CO)[C@@H](O)[C@H](N)[C@H]1O [AMIKACIN] | > 6.25 | 0.08 | 0.16 (≈ 0.0937 µg/mL) | 30 | Active | – | – | – | – | – | – | –
2 | O=C1c2ccccc2C(=O)C12N1CSC[C@@H]1C(c1ccc(Cl)cc1Cl)[C@@]21CSc2ccccc2C1=O (single isomer, unassigned) | > 6.25 | 4.6 | 6.25 (≈ 3.45 µg/mL) | – | – | < 50 | 19.5 | 2.87 | 4 | 12 | 101 | 105
3 | CN1CC(c2ccc(Cl)cc2Cl)[C@@]2(CSc3ccccc3C2=O)C12C(=O)c1ccccc1C2=O (single isomer, unassigned) | > 6.25 | 1.98 | 6.25 (≈ 3.18 µg/mL) | – | – | < 50 | 24.1 | 1.07 | 12 | 37 | 90 | 107
4 | O=C1c2ccccc2C(=O)C12N1CSC[C@@H]1[C@@H](c1cccc(F)c1)[C@@]21CSc2ccccc2C1=O | > 6.25 | 22 | 50 (≈ 25.1 µg/mL) | – | – | < 50 | 12.2 | 16.4 | – | – | 91.7 | 116
5 | CN1CC(c2ccccc2Cl)[C@@]2(CSc3ccccc3C2=O)C12C(=O)c1ccccc1C2=O (single isomer, unassigned) | > 6.25 | 66.5 | 100 (≈ 47.4 µg/mL) | – | – | < 50 | 10.1 | 47.2 | – | – | 97.2 | 86
6 | COc1ccc([C@@H]2CN(C)C3(C(=O)c4ccccc4C3=O)[C@]23CSc2ccccc2C3=O)cc1 | > 6.25 | 36.5 | 50 (≈ 23.5 µg/mL) | – | – | < 50 | 1.16 | 18.3 | – | – | 93.4 | 102
7 | CN1C[C@@H](c2ccccc2)[C@@]2(CSc3ccccc3C2=O)C12C(=O)c1ccccc1C2=O | > 6.25 | 27.9 | 100 (≈ 44 µg/mL) | – | – | < 50 | 11.1 | 15.2 | – | – | 86.7 | 104
8 | O=C1c2ccccc2C(=O)C12N1CSC[C@@H]1[C@@H](c1ccc(F)cc1)[C@@]21CSc2ccccc2C1=O | > 6.25 | 25.9 | 50 (≈ 25.1 µg/mL) | – | – | < 50 | 19.8 | 13.2 | – | – | 95.9 | 116
